Measurements as given in US9006444B2, “Phenyl carboxamide-containing spleen tyrosine kinase (SYK) inhibitors” (Merck Sharp & Dohme Corp., priority 2011, dated 2015).
Read-outs that look alike come from different tables or passages of the source.

Legend:
[1] = target: T1, recombinant human GST-SYK (Homo sapiens, UniProt P43405); experiment: Homogeneous Time-Resolved Fluorescence (HTRF) Assay for the Recombinant Human Syk Enzyme; assay type: biochemical; conditions: GST-hSYK 5 pM, ATP 25 μM, 10-dose titration
T1 construct: purchased Carna Biosciences 08-176
Procedure: Homogeneous Time-Resolved Fluorescence (HTRF) Assay for the Recombinant Human Syk Enzyme
A recombinant GST-hSYK fusion protein was used to measure potency of compounds to inhibit human Syk activity. […] Final volume of the reaction was 10 μL. Phosphorylation of the peptide was allowed to proceed for 45′ at room temperature. To quench the reaction and detect the phosphorylated product, 2 nM of a Europium-anti-phosphotyrosine antibody (Perkin Elmer #AD0161) and 70 nM SA-APC (Perkin-Elmer #CR130-100) were added together in 15 mM Tris pH 7.5, 40 mM EDTA, 0.01% tween 20. Final volume of the quenching solution was 10 μl. The resulting HTRF signal was measured after 30 minutes on an EnVision (Perkin-Elmer) reader using a time-resolved fluorescence protocol.

PGD2 = conditions: intranasal, phase I/II study, allergic rhinitis; cited from earlier work
[2] = phase II clinical trial, allergic rhinitis; cited from earlier work

Compound `COc1cccc(Nc2cc(N[C@@H]3CCCC[C@@H]3N)ccc2C(N)=O)n1` (relative stereo) [Example 1.2, rel-4-{[(1R,2S)-2-aminocyclohexyl]amino}-2-[(6-methoxypyridin-2-yl)amino]benzamide] has an IC50 ([1]; read-out: rhSYK Activity) of 1.5 to 15 nM.

With `NC(=O)c1ccc(N[C@@H]2CCCC[C@@H]2N)cc1Nc1cccc(-n2cccn2)n1` (relative stereo) [Example 1.3, rel-4-{[(1R,2S)-2-aminocyclohexyl]amino}-2-{[6-(1H-pyrazol-1-yl)pyridin-2-yl]amino}benzamide] the IC50 ([1]; read-out: rhSYK Activity) was 1.5 to 15 nM.

Work on `Cc1nc(Nc2cc(N[C@@H]3CCCC[C@@H]3N)ccc2C(N)=O)ccc1F` (relative stereo) [Example 1.4, rel-4-{[(1R,2S)-2-aminocyclohexyl]amino}-2-[(5-fluoro-6-methylpyridin-2-yl)amino]benzamide] yielded an IC50 ([1]; read-out: IC50) of 23 nM and an IC50 ([1]; read-out: rhSYK Activity) of 15 to 50 nM.

For `NC(=O)c1ccc(N[C@@H]2CCCC[C@@H]2N)cc1Nc1cccc(N2CCOCC2)n1` (relative stereo) [Example 1.5, rel-4-{[(1R,2S)-2-aminocyclohexyl]amino}-2-[(6-morpholin-4-ylpyridin-2-yl)amino]benzamide], the IC50 ([1]; read-out: rhSYK Activity) was 15 to 50 nM.

In the case of `CCOc1cccc(Nc2cc(N[C@@H]3CCCC[C@@H]3N)ccc2C(N)=O)n1` (relative stereo) [Example 1.6, rel-4-{[(1R,2S)-2-aminocyclohexyl]amino}-2-[(6-ethoxypyridin-2-yl)amino]benzamide], the IC50 ([1]; read-out: rhSYK Activity) is reported as 1.5 to 15 nM.

In the case of `NC(=O)c1ccc(N[C@@H]2CCCC[C@@H]2N)cc1Nc1cccc(-c2ccccc2)n1` (relative stereo) [Example 1.7, rel-4-{[(1R,2S)-2-aminocyclohexyl]amino}-2-[(6-phenylpyridin-2-yl)amino]benzamide], the IC50 ([1]; read-out: rhSYK Activity) is reported as less than 1.5 nM.

`NC(=O)c1ccc(N[C@@H]2CCCC[C@@H]2N)cc1Nc1cccc(-c2ccncc2)n1` (relative stereo) [Example 1.8, rel-4-{[(1R,2S)-2-aminocyclohexyl]amino}-2-(2,4′-bipyridin-6-ylamino)benzamide] showed an IC50 ([1]; read-out: rhSYK Activity) of less than 1.5 nM.

Work on `COc1cccc(-c2cccc(Nc3cc(N[C@@H]4CCCC[C@@H]4N)ccc3C(N)=O)n2)c1` (relative stereo) [Example 1.9, rel-4-{[(1R,2S)-2-aminocyclohexyl]amino}-2-{[6-(3-methoxyphenyl)pyridin-2-yl]amino}benzamide] yielded an IC50 ([1]; read-out: IC50) of 1.3 nM and an IC50 ([1]; read-out: rhSYK Activity) of less than 1.5 nM.

In the case of `Cn1cc(-c2cccc(Nc3cc(N[C@@H]4CCCC[C@@H]4N)ccc3C(N)=O)n2)cn1` (relative stereo) [Example 1.10, rel-4-{[(1R,2S)-2-aminocyclohexyl]amino}-2-{[6-(1-methyl-1H-pyrazol-4-yl)pyridin-2-yl]amino}benzamide], the IC50 ([1]; read-out: IC50) is reported as 2 nM and the IC50 ([1]; read-out: rhSYK Activity) is reported as 1.5 to 15 nM.

In the case of `NC(=O)c1ccc(N[C@@H]2CCCC[C@@H]2N)cc1Nc1cccc(-c2cccc(F)c2)n1` (relative stereo) [Example 1.11, rel-4-{[(1R,2S)-2-aminocyclohexyl]amino}-2-{[6-(3-fluorophenyl)pyridin-2-yl]amino}benzamide], the IC50 ([1]; read-out: rhSYK Activity) is reported as less than 1.5 nM.

Work on `COc1ccccc1-c1cccc(Nc2cc(N[C@@H]3CCCC[C@@H]3N)ccc2C(N)=O)n1` (relative stereo) [Example 1.12, rel-4-{[(1R,2S)-2-aminocyclohexyl]amino}-2-{[6-(2-methoxyphenyl)pyridin-2-yl]amino}benzamide] yielded an IC50 ([1]; read-out: rhSYK Activity) of less than 1.5 nM.

With `COc1ccc(-c2cccc(Nc3cc(N[C@@H]4CCCC[C@@H]4N)ccc3C(N)=O)n2)cc1` (relative stereo) [Example 1.13, rel-4-{[(1R,2S)-2-aminocyclohexyl]amino}-2-{[6-(4-methoxyphenyl)pyridin-2-yl]amino}benzamide] the IC50 ([1]; read-out: rhSYK Activity) was less than 1.5 nM.

In the case of `NC(=O)c1ccc(N[C@@H]2CCCC[C@@H]2N)cc1Nc1cccc(-c2ccc(F)cc2)n1` (relative stereo) [Example 1.14, rel-4-{[(1R,2S)-2-aminocyclohexyl]amino}-2-{[6-(4-fluorophenyl)pyridin-2-yl]amino}benzamide], the IC50 ([1]; read-out: rhSYK Activity) is reported as 1.5 to 15 nM.

With `NC(=O)c1ccc(N[C@@H]2CCCC[C@@H]2N)cc1Nc1ccc2ccccc2n1` (relative stereo) [Example 1.15, rel-4-{[(1R,2S)-2-aminocyclohexyl]amino}-2-(quinolin-2-ylamino)benzamide] the IC50 ([1]; read-out: rhSYK Activity) was 1.5 to 15 nM.

For `NC(=O)c1ccc(N[C@@H]2CCCC[C@@H]2N)cc1Nc1cccc(-c2ccc(F)c(F)c2)n1` (relative stereo) [Example 1.16, rel-4-{[(1R,2S)-2-aminocyclohexyl]amino}-2-{[6-(3,4-difluorophenyl)pyridin-2-yl]amino}benzamide], the IC50 ([1]; read-out: IC50) was 1.6 nM and the IC50 ([1]; read-out: rhSYK Activity) was 1.5 to 15 nM.

With `NC(=O)c1ccc(N[C@@H]2CCCC[C@@H]2N)cc1Nc1cccc(-n2cccc2)n1` (relative stereo) [Example 1.17, rel-4-{[(1R,2S)-2-aminocyclohexyl]amino}-2-{[6-(1H-pyrrol-1-yl)pyridin-2-yl]amino}benzamide] the IC50 ([1]; read-out: rhSYK Activity) was less than 1.5 nM.

`Cc1cccc(Nc2cc(N[C@@H]3CCCC[C@@H]3N)ccc2C(N)=O)n1` (relative stereo) [Example 2, rel-4-{[(1R,2S)-2-aminocyclohexyl]amino}-2-[(6-methylpyridin-2-yl)amino]benzamide] gave an IC50 ([1]; read-out: rhSYK Activity) of 15 to 50 nM.

In the case of `Oc1cccc(Nc2ncc(F)c(Nc3cccc(O)c3)n2)c1` [Example R112], the “change in PGD2” value (PGD2) is listed as “statistically significant decrease”, the clinical safety (PGD2) is listed as “safe across a range of indicators” and the efficacy versus placebo [2] is listed as “lack of efficacy versus placebo”.
